Measurements as given in US20050192339A1, “Compounds” (priority 2003, published 2005).
Structures can show the parent of a compound that is named as a salt.

Assays:
human MCH1R receptor [1] = target: T1, human MCH1R receptor (Homo sapiens, UniProt Q99705); assay: MCH1R receptor binding by SPA ([125I]-MCH displacement, CHO-K1 hMCH1R membranes); conditions: 0.2 nM [125I]-MCH, membranes of CHO-K1 cells expressing hMCH1 receptor, room temperature; Ki calculated from IC50 (Cheng-Prusoff)
T1 construct: host or cells: CHO-K1
T1 sequence (Q99705 whole entry): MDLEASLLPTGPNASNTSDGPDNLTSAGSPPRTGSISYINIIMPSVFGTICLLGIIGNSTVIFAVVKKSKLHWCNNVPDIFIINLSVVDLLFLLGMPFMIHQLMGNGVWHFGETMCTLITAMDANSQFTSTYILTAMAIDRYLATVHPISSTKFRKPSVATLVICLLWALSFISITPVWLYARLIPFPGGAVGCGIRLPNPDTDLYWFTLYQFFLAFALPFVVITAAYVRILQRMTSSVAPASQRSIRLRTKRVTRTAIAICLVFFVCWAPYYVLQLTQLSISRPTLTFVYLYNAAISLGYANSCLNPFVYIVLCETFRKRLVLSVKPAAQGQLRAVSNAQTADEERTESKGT
Procedure: The compounds according to the invention were evaluated for their binding to the human MCH1R receptor by the following method:
Compounds: MCH peptide was purchased from Phoenix pharmaceuticals. (Phe^13, [^125I]Tyr^19 Melanine-Concentrating Hormone (human, mouse, rat) ([^125I]-MCH) was obtained from NEN life Science Products. Inc. Boston, Mass. Wheat germ agglutinine SPA beads (RPNQ 0001) were obtained from Amersham-Pharmacia Biotech. All other reagents used are of highest purity from different resources available. Protein Kits, Micro BCA™ Protein Assay Reagent Kit (Cat No. 23235) were purchased from Piece, Rockford, Ill., USA.
CHO-K1 cells expressing hMCH1 receptor were purchased from Euroscreen. CHO-K1 hMCHRI (Euroscreen, Brussels, Belgium, # ES-370-C) were cultivated in Nutrient mixture Ham's F-12 with Glutamax I (Gibco-BRL #31765-027) supplemented with 10% heat-inactivated foetal calf serum (FCS, Gibco-BRL #10108-165) and 400 μg/ml geniticin (Gibco-BRL #1140-0359). The cells were sub-cultivated twice weekly with split ratio=1:20-1:30. For membrane preparation the cells were cultured in […] and the cells were harvested when 90% confluent.
When the cells reached more than 90% confluence, dishes (500 cm^2) were rinsed twice with 20 ml PBS (Ca^2+ and Mg^2+ free). Buffer A, which contains Tris.HCl (15), MgCl2.6H2O (2), EDTA (0.3), EGTA (1) in mM with pH 7.5, 25 ml was added and cells were suspended using a window scraper. The cells were collected in 50 ml Falcon tube pre-cooled on ice and then centrifuged for 3 minutes at 1500 g at 4° C. […]
The radio labeled [^125I]-MCH was diluted with cold MCH in ratio 1:3. […] The results were calculated using Excel program and the curves were drawn using a program GraphPad Prism.
For screening of the substances the amount of the beads used was 0.25 mg/well and the amount of the membrane protein was 4 μg/well 0.2 nM of labeled MCH was used. […] The samples were counted using Microbeta counter (Wallac Trilux 1450 Micro beta counter, Wallac, Finland) for 2 minutes and the results were calculated by using the computer program Activity Base. […]

human MCH1R receptor [2] = target: T1, human MCH1R receptor; conditions: from Hervieu et al., Eur J Neurosci 2000; read-out: Kd of MCH binding reported in literature; cited from earlier work

Molecule	Ki (human MCH1R receptor [1])	Kd (human MCH1R receptor [2])
C=CCNC(=O)N[C@@H]1CC[C@@]2(c3ccc(OC)c(OC)c3)CCN(C)[C@H]2C1 (relative stereo) [Example 58, N-allyl-N′-[(3aS*,6R*7aS*)-3a-(3,4-dimethoxyphenyl)-1-methyloctahydro-1H-indol-6-yl]urea trifluoroacetate]	907 nM	–
COc1ccc([C@@]23CC[C@@H](NC(=S)NCc4ccccc4)C[C@@H]2N(CCCc2ccccc2)CC3)cc1OC (relative stereo) [Example 23, N-benzyl-N′-[(3aS*,6R*,7aS*)-3a-(3,4-dimethoxyphenyl)-1-(3-phenylpropyl)octahydro-1H-indol-6-yl]thiourea]	43 nM	–
[^125I]-MCH	–	1.2 nM
COc1ccc([C@@]23CC[C@@H](NC(=O)NCc4ccc(Br)cc4)C[C@@H]2N(C)CC3)cc1OC (relative stereo) [Example 69, N-(4-bromobenzyl)-N′-[(3aS*,6R*,7aS*)-3a-(3,4-dimethoxyphenyl)-1-methyloctahydro-1H-indol-6-yl]urea trifluoroacetate]	227 nM	–
